Test: Stability test against a mouse liver homogenate
Assay type: in vitro ADME, ICR-strain mice
Details: mouse liver homogenate supernatant, pH 7.2, 37° C., unchanged product remaining by TLC/chromatoscanner (283 nm), read-out: Residual activity ratio (%)
Experimental: The livers of ICR-strain mice were homogenized together with 5 times their amount of 0.1M phosphate buffer (pH 7.2) in a Potter homogenizer (3000 rpm, 10 minutes). One ml of 500 micrograms/ml of a test compound (10% methanol water) was added to the supernatant (1 ml) of the homogenate, and reacted at 37° C. for 1 hour. The mixture was heated at 100° C. of 3 minutes. Then, 1 ml of 0.1M phosphate buffer (pH 9.0) was added, and the mixture was extracted with 1 ml of ethyl acetate, organic layer was subjected to silica gel thin-layer chromatography (chloroform/methanol/ammonia=15/1.2/0.1), and by a chromatoscanner (283 nm), the ratio of an unchanged product and a hydrolyzed product formed was determined. The amount of the unchanged product remaining was expressed by percentage.
In the case of CCC1OC(=O)CC(O)C(C)C(OC2CC(N(C)C)C(OC3CC(C)(O)C(OC(=O)Cc4ccc(C(C)=O)cc4)C(C)O3)C(C)O2)C(CC=O)CC(C)C(=O)/C=C/C2(C)OC2C1COC1OC(C)C(O)C(OC)C1OC (stereo not drawn) [Compound (1), 4"-O-(p-acetylphenylacetyl)-angolamycin], the remaining at 1 h is reported as 94%. CCC1OC(=O)CC(O)C(C)C(OC2CC(N(C)C)C(OC3CC(C)(O)C(OC(=O)Cc4ccc(OC)cc4)C(C)O3)C(C)O2)C(CC=O)CC(C)C(=O)/C=C/C2(C)OC2C1COC1OC(C)C(O)C(OC)C1OC (stereo not drawn) [Compound (2), 4"-O-(p-methoxyphenylacetyl)-angolamycin] showed a remaining at 1 h of 95%. For CCC1OC(=O)CC(O)C(C)C(OC2CC(N(C)C)C(OC3CC(C)(O)C(OC(=O)CC(C)C)C(C)O3)C(C)O2)C(CC=O)CC(C)C(=O)/C=C/C2(C)OC2C1COC1OC(C)C(O)C(OC)C1OC (stereo not drawn) [Control compound (1), 4"-O-isovaleryl angola-mycin, reference compound], the remaining at 1 h was 55%.

Source: patent US5091370A, “Angolamycin derivatives” (Sanraku Incorporated, priority 1989, dated 1992)
